1 compound from publication PMC8102477 (2021) can be followed below.

Test [1] deals with 22AG (DNA, G4) AGGGTTAGGGTTAGGGTTAGGG
Description: fluorescence titration (ThT titrated with 22AG). The note with it: 30 mM Tris-HCl pH 7.4, 25 °C, 1 bar, 2.14 µM ThT.

For test [2], the system named is labelled 22AG (DNA, G4) AGGGTTAGGGTTAGGGTTAGGG
The experiment in a line: FRET efficiency (FAM/TAMRA). The following applies: no added Na+ or K+; 30 mM Tris-HCl pH 7.4, 25 °C, 1 bar; 2 µM DNA, 20 µM ThT; Erel rises on binding.

Take `Cc1ccc2c(c1)sc(-c1ccc(N(C)C)cc1)[n+]2C`: the Kb is listed as 3.51 ± 0.42 × 10^5 M^-1 in test [1] (60 mM KCl, equivalent independent sites fit); 0.42 ± 0.04 × 10^5 M^-1 in test [1] (60 mM NaCl, equivalent independent sites fit); 0.87 ± 0.06 × 10^5 M^-1 in test [1] (no added Na+ or K+, 3 equivalent sites, free DNA mainly unfolded). Further, in test [2], the binding entry is on record as “yes”.
